# According to US12202835B2, “Substituted aromatic ring-linked dioxinoquinazolines and dioxinoquinolines as kinase inhibitors” (BEIJING SCITECH-MQ PHARMACEUTICALS LIMITED, priority 2018, dated 2025):
# How the values were obtained:
# MER kinase = MER kinase (Homo sapiens (Human), UniProt Q12866); assay: Assay of small molecular compounds for inhibiting the activity of MER kinase (LANCE TR-FRET); type: biochemical
# Summary of the method: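 MER kinase preincubated 5 min at RT with compound (11 points, 0.042-2500 nM final), then ULight-poly GT and ATP added (4× stocks 200 nM and 20 μM) for 60 min at RT, 1% DMSO. Phosphorylation detected by LANCE TR-FRET; IC50 from % inhibition versus controls.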
# c-MET kinase = c-MET kinase (Homo sapiens (Human), UniProt P08581); assay: Assay of small molecular compounds for inhibiting the activity of c-MET kinase (LANCE TR-FRET); type: biochemical; conditions: read-out: CMET IC50
# Summary of the method: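 LANCE TR-FRET assay with c-MET at 1 nM final after a 5 min room-temperature preincubation with compound (11-point, 3-fold series, 2500–0.042 nM final, 4% DMSO). ULight-JAK-1 (Tyr1023) peptide (100 nM final) and ATP (10 μM final) reacted 60 min in the dark. Inhibition was taken relative to controls, then IC50 fitted.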
# EBC1 cells = assay: Assay for inhibiting the proliferation of EBC1 cells (CCK-8); type: cell-based; conditions: Homo sapiens, EBC-1
# Summary of the method: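 Cells seeded in 96-well plates overnight, then exposed 72 h to 9 three-fold dilutions of compound (0.25% DMSO final). Viability by CCK-8 (1-2 h at 37° C., OD 450 nm), survival normalized to untreated and cell-free blanks; IC50 by curve fitting.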
# [1] = tested on: Ba/F3 LMNA-NTRK1-G595R cells; assay: Assay for inhibiting the proliferation of Ba/F3 LMNA-NTRK1-G595R cells (CCK-8); type: cell-based; conditions: Mus musculus, BaF3
# Experimental: In particular, the method of the assay of small molecular compounds for inhibiting cell proliferation is as follows: • 1. Cells cultured to a logarithmic growth phase (adherent cells need to be digested with trypsin and neutralized) were taken, pipetted evenly, transferred to a 15 mL centrifuge tube, and centrifuged at 1000 rpm at room temperature for 4 minutes; • 2. The supernatant was discarded; 5 mL of complete medium was added and pipetted evenly; 10 μL of cell suspension was taken out, mixed well with 10 μL of 0.4% trypan blue, and counted under a cell counter; the proportion of living cells was ensured to be above 90%; • 3. 80 μL of cell suspension per well was seeded into a 96-well plate according to the conditions shown in the attached table, and cultured overnight; in the outer 36 wells of the 96-well plate, no cells were added but only sterile water was added; only the inner 60 wells were used for cell assay and control; • 4. 5×compound dilution: the compounds were serially diluted 3-fold to obtain a total of 9 concentrations; 80-fold overall dilution was completed with complete medium, the resulting concentration was 5 times the final drug concentration, and DMSO concentration was 1.25%; • 5. 20 μL of the corresponding compounds with different concentration gradients were added to each well of assay wells of the 96-well plate; 20 μL of complete medium was added to positive and negative control wells and shaken well; and the final concentration of DMSO in each well was 0.25%; • 6. After 72 hours of incubation, 10 μL of CCK-8 reagent was added to each well and further incubated at 37° C. for 1-2 hours; and the OD value was read at 450 nm; • 7. Cell survival rate (%)=[(As−Ab)/(Ac−Ab)]*100% • As: Assay well (medium containing cells, CCK-8, compound), • Ac: Control well (medium containing cells, CCK-8), • Ab: Blank well (CCK-8, medium without cell and compound), • 8. The values were imported into Graphpad Prism 5 software for IC50 calculation.
# Sequence of c-MET kinase (P08581 25-1390): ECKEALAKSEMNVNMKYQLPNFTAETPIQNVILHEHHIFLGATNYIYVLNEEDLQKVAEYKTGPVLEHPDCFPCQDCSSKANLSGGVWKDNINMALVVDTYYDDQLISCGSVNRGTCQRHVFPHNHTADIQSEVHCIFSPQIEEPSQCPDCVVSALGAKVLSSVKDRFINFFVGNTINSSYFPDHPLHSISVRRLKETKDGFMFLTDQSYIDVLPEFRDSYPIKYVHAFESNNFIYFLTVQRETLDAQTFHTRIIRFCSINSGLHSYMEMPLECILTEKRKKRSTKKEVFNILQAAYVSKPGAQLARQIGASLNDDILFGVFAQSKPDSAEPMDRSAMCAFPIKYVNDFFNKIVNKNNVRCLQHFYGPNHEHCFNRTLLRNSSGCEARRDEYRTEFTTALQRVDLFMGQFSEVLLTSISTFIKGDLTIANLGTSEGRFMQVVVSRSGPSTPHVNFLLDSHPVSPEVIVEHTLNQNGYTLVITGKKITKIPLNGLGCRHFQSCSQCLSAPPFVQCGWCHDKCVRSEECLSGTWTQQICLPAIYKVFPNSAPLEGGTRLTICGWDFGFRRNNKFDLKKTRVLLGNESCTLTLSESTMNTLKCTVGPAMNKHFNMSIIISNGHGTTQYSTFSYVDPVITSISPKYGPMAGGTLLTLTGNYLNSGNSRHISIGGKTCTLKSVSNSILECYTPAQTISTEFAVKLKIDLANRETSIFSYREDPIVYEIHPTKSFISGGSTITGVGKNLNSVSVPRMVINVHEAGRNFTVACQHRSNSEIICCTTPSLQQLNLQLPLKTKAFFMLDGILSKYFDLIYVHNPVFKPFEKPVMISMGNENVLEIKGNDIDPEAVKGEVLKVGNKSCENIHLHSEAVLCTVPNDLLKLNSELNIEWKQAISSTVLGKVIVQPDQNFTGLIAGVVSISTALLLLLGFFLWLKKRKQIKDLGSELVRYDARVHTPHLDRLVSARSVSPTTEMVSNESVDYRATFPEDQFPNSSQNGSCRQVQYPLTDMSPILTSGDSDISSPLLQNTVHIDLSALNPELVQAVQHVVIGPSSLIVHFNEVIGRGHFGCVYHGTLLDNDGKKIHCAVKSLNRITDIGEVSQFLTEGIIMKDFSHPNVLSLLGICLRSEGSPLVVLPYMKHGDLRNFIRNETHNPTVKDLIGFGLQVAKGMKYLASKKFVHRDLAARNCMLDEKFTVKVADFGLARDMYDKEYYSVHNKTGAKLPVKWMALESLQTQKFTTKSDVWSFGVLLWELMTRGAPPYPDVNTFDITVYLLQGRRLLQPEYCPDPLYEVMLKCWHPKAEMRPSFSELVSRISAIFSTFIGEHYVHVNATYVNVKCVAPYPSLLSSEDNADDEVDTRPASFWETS
# Sequence of MER kinase (Q12866 21-999): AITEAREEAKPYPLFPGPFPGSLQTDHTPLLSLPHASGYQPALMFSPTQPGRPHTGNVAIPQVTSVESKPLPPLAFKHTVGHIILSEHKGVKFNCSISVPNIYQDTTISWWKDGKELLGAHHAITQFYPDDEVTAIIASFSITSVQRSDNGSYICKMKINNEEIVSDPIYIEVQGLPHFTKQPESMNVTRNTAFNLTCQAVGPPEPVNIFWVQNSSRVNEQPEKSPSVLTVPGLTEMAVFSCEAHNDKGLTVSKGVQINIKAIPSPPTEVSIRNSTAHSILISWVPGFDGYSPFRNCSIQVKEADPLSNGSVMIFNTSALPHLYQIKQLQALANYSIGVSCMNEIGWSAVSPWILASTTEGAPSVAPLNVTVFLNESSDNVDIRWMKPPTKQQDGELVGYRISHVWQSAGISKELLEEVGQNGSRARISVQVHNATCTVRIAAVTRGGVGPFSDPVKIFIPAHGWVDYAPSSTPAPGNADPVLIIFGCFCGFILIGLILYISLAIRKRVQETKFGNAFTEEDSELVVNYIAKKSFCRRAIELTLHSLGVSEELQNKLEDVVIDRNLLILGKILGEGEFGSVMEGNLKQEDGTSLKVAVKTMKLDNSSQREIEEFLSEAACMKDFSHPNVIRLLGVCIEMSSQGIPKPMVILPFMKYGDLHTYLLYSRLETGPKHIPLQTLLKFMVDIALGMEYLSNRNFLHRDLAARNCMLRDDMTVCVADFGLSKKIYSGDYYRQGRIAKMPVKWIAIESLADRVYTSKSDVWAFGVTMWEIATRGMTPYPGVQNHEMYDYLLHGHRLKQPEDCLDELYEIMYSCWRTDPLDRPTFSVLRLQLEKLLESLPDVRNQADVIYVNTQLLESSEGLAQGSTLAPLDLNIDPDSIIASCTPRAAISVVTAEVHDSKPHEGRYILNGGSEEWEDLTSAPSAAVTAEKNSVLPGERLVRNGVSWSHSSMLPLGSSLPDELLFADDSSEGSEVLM
Structure (SMILES),IC50 (MER kinase),IC50 (c-MET kinase),IC50 (EBC1 cells),IC50 [1]
"COc1cc2nccc(Oc3ccc(NC(=O)c4cn(CCCO)c(=O)n(-c5ccc(F)cc5)c4=O)cc3F)c2c2c1OCCO2 [Example 99, N-(3-fluoro-4-((5-methoxy-2,3-dihydro-[1,4]dioxino[2,3-f]quinolin-10-yl)oxy)phenyl)-3-(4-fluorophenyl)-1-(3-hydroxypropyl)-2,4-dioxo-1,2,3,4-tetrahydropyrimidine-5-carboxamide]",≤ 50 nM,≤ 50 nM,≤ 50 nM,
"C=CCn1cc(C(=O)Nc2ccc(Oc3ccnc4cc(OC)c5c(c34)OCCO5)c(F)c2)c(=O)n(-c2ccc(F)cc2)c1=O [Example 100, N-(3-fluoro-4-((5-methoxy-2,3-dihydro-[1,4]dioxino[2,3-f]quinolin-10-yl)oxy)phenyl)-3-(4-fluorophenyl)-1-allyl-2,4-dioxo-1,2,3,4-tetrahydropyrimidine-5-carboxamide]",≤ 50 nM,≤ 50 nM,≤ 50 nM,
"COc1cc2nccc(Oc3ccc(NC(=O)c4cn(CCF)c(=O)n(-c5ccc(F)cc5)c4=O)cc3F)c2c2c1OCCO2 [Example 101, N-(3-fluoro-4-((5-methoxy-2,3-dihydro-[1,4]dioxino[2,3-f]quinolin-10-yl)oxy)phenyl)-3-(4-fluorophenyl)-1-(2-fluoroethyl)-2,4-dioxo-1,2,3,4-tetrahydropyrimidine-5-carboxamide]",≤ 50 nM,≤ 50 nM,≤ 50 nM,
"CCOc1ccn(-c2ccc(F)cc2)c(=O)c1C(=O)Nc1ccc(Oc2ccnc3cc(OCC4(N)CC4)c4c(c23)OCCO4)c(F)c1 [Example 105, N-(4-((5-((1-aminocyclopropyl)methoxy)-2,3-dihydro-[1,4]dioxino[2,3-f]quinolin-10-yl)oxy)-3-fluorophenyl)-4-ethoxy-1-(4-fluorophenyl)-2-oxo-1,2-dihydropyridine-3-carboxamide]",≤ 50 nM,≤ 50 nM,≤ 50 nM,
"CC(C)n1cc(C(=O)Nc2ccc(Oc3ccnc4cc(OCC5(N)CC5)c5c(c34)OCCO5)c(F)c2)c(=O)n(-c2ccc(F)cc2)c1=O [Example 106, N-(3-fluoro-4-((5-((1-aminocyclopropyl)methoxy)-2,3-dihydro-[1,4]dioxino[2,3-f]quinolin-1 0-yl)oxy)phenyl)-3-(4-fluorophenyl)-1-isopropyl-2,4-dioxo-1,2,3,4-tetrahydropyrimidine-5-carboxamide]",≤ 50 nM,50 to 500 nM,≤ 50 nM,
"CCOc1ccn(-c2ccc(C)cc2)c(=O)c1C(=O)Nc1ccc(Oc2ccnc3cc(OC)c4c(c23)OCCO4)c(F)c1 [Example 112, N-(3-fluoro-4-((5-methoxy-2,3-dihydro-[1,4]dioxino[2,3-f]quinolin-10-yl)oxy)phenyl)-2-oxo-4-ethoxy-1-(4-methylphenyl)-1,2-dihydropyridin-3-carboxamide]",≤ 50 nM,≤ 50 nM,50 to 200 nM,
"CCOc1ccn(-c2ccc(Cl)cc2)c(=O)c1C(=O)Nc1ccc(Oc2ccnc3cc(OC)c4c(c23)OCCO4)c(F)c1 [Example 113, N-(3-fluoro-4-((5-methoxy-2,3-dihydro-[1,4]dioxino[2,3-f]quinolin-10-yl)oxy)phenyl)-2-oxo-4-ethoxy-1-(4-chlorophenyl)-1,2-dihydropyridin-3-carboxamide]",≤ 50 nM,≤ 50 nM,50 to 200 nM,
"CCOc1ccn(-c2cccc(F)c2)c(=O)c1C(=O)Nc1ccc(Oc2ccnc3cc(OC)c4c(c23)OCCO4)c(F)c1 [Example 114, N-(3-fluoro-4-((5-methoxy-2,3-dihydro-[1,4]dioxino[2,3-f]quinolin-10-yl)oxy)phenyl)-2-oxo-4-ethoxy-1-(3-fluorophenyl)-1,2-dihydropyridin-3-carboxamide]",≤ 50 nM,≤ 50 nM,50 to 200 nM,
"CCOc1ccn(-c2ccc(F)cc2)c(=O)c1C(=O)Nc1cc(F)c(Oc2ccnc3cc(OC)c4c(c23)OCCO4)cc1Cl [Example 115, N-(2-chloro-5-fluoro-4-((5-methoxy-2,3-dihydro-[1,4]dioxino[2,3-f]quinolin-10-yl)oxy)phenyl)-4-ethoxy-2-oxo-1-(4-fluorophenyl)-1,2-dihydropyridin-3-carboxamide]",≤ 50 nM,≤ 50 nM,≤ 50 nM,
"COc1cc2nccc(Oc3ccc(NC(=O)c4cn(C)c(=O)n(-c5ccc(F)cc5)c4=O)cc3)c2c2c1OCCO2 [Example 145, N-(4-((5-methoxy-2,3-dihydro-[1,4]dioxino[2,3-f]quinolin-10-yl)oxy)phenyl)-3-(4-fluorophenyl)-1-methyl-2,4-dioxo-1,2,3,4-tetrahydropyrimidine-5-carboxamide]",,≤ 50 nM,,> 1000 nM
"CCn1cc(C(=O)Nc2ccc(Oc3ccnc4cc(OC)c5c(c34)OCCO5)cc2)c(=O)n(-c2ccc(F)cc2)c1=O [Example 146, N-(4-((5-methoxy-2,3-dihydro-[1,4]dioxino[2,3-f]quinolin-10-yl)oxy)phenyl)-3-(4-fluorophenyl)-1-ethyl-2,4-dioxo-1,2,3,4-tetrahydropyrimidine-5-carboxamide]",,≤ 50 nM,,200 to 1000 nM
"COCCOc1cc2nccc(Oc3ccc(NC(=O)c4cn(C)c(=O)n(-c5ccc(F)cc5)c4=O)cc3)c2c2c1OCCO2 [Example 147, N-(4-((5-(2-methoxyethoxy)-2,3-dihydro-[1,4]dioxino[2,3-f]quinolin-10-yl)oxy)phenyl)-3-(4-fluorophenyl)-1-methyl-2,4-dioxo-1,2,3,4-tetrahydropyrimidine-5-carboxamide]",,≤ 50 nM,,50 to 200 nM
"CCn1cc(C(=O)Nc2ccc(Oc3ccnc4cc(OCCOC)c5c(c34)OCCO5)cc2)c(=O)n(-c2ccc(F)cc2)c1=O [Example 148, N-(4-((5-(2-methoxyethoxy)-2,3-dihydro-[1,4]dioxino[2,3-f]quinolin-10-yl)oxy)phenyl)-3-(4-fluorophenyl)-1-ethyl-2,4-dioxo-1,2,3,4-tetrahydropyrimidine-5-carboxamide]",,≤ 50 nM,,200 to 1000 nM
"Cn1cc(C(=O)Nc2ccc(Oc3ccnc4cc(OCC(C)(C)O)c5c(c34)OCCO5)cc2)c(=O)n(-c2ccc(F)cc2)c1=O [Example 149, N-(4-((5-(2-hydroxy-2-methylpropoxy)-2,3-dihydro-[1,4]dioxino[2,3-f]quinolin-10-yl)oxy)phenyl)-3-(4-fluorophenyl)-1-methyl-2,4-dioxo-1,2,3,4-tetrahydropyrimidine-5-carboxamide]",,≤ 50 nM,,> 1000 nM
"CCn1cc(C(=O)Nc2ccc(Oc3ccnc4cc(OCC(C)(C)O)c5c(c34)OCCO5)cc2)c(=O)n(-c2ccc(F)cc2)c1=O [Example 150, N-(4-((5-(2-hydroxy-2-methylpropoxy)-2,3-dihydro-[1,4]dioxino[2,3-f]quinolin-10-yl)oxy)phenyl)-3-(4-fluorophenyl)-1-ethyl-2,4-dioxo-1,2,3,4-tetrahydropyrimidine-5-carboxamide]",,≤ 50 nM,,> 1000 nM
"COc1cc2nccc(Oc3ccc(NC(=O)c4cn(C)c(=O)n(-c5ccc(F)cc5)c4=O)c(F)c3)c2c2c1OCCO2 [Example 153, N-(2-fluoro-4-((5-methoxy-2,3-dihydro-[1,4]dioxino[2,3-f]quinolin-10-yl)oxy)phenyl)-3-(4-fluorophenyl)-1-methyl-2,4-dioxo-1,2,3,4-tetrahydropyrimidine-5-carboxamide]",,≤ 50 nM,,≤ 50 nM
"COCCOc1cc2nccc(Oc3ccc(NC(=O)c4cn(C)c(=O)n(-c5ccc(F)cc5)c4=O)c(F)c3)c2c2c1OCCO2 [Example 155, N-(2-fluoro-4-((5-(2-methoxyethoxy)-2,3-dihydro-[1,4]dioxino[2,3-f]quinolin-10-yl)oxy)phenyl)-3-(4-fluorophenyl)-1-methyl-2,4-dioxo-1,2,3,4-tetrahydropyrimidine-5-carboxamide]",,≤ 50 nM,,≤ 50 nM
